Reference: patent publication US11109819B2, “System and method for quantitatively mapping mitochondrial membrane potential” (The General Hospital Corporation, priority 2016, dated 2021)
“Also recorded” adds a separate entry of the source.

Columns and labels:
[1] = mouse tissues; FIGS. 1-5 of US 2013/0064768 A1; cited from earlier work
[2] = in vivo; cited from earlier work
[3] = Arterial and venous blood sampling of 18F-TPP+, whole blood to plasma concentration ratio; format: in vivo, domestic swine
Description: (§1) Pigs were fasted 12 hours prior to induction of anesthesia, sedated with 4.4 mg/kg Telazol, placed on 5% masked isoflurane, intubated, maintained with 1.5% isoflurane and mechanically ventilated. Vital signs were monitored continuously. Vascular access was obtained via the femoral veins for injection of PET radiotracer and iodinated contrast media. An arterio-venous shunt was placed in the left femoral artery for blood withdrawal.
Arterial blood sampling of ^18F-TPP^+ were drawn every 10 seconds for the first 3 minutes, then at 1 minute intervals for 5 minutes, and at increasing intervals until 120 minutes post injection. In two studies, venous several blood samples were also drawn at 5, 10, 15, 30, 60 and 90 minutes for comparison with arterial samples. All blood samples were centrifuged to determine plasma and red cell concentration histories. Concentration ratios of whole blood to plasma were computed.

[4] = Comparison of myocardial kinetics of TPP+ and Flurpiridaz (FIG. 4); format: in vivo
Text: FIG. 4 is a graphical illustration depicting comparison of myocardial kinetics of TPP^| and Flurpiridaz. The black line (the top line) depicts Flurpiridaz kinetics; whereas, the red line (the bottom line) depicts TPP^+ kinetics. Concentrations are normalized to remove the effect of injected radioactivity dose.
To provide a direct observation Applicants compared the kinetics of ^18F-TPP^+ to those of ^18F-Flurppiridaz, a tracer with high first pass capillary extraction (E>0.9). […] Thus it is unlikely that TPP^+ can provide useful myocardial flow measurements, per se.

[5] = Time course of tracer concentration to steady state (FIG. 4, FIG. 11); format: in vivo, domestic swine
Text: Applicants use a few administration methods including a constant infusion, a pulse or bolus injection or a combination of a constant infusion a pulse or bolus injection. To date, most of Applicants work has used the kinetic approach because it carries the complete information available from our measurements. By analyzing the kinetic data (concentration vs time), Applicants can infer the steady state based on the ratio of the tissue concentration to the plasma concentration. […] The addition of the pulse or bolus injection to the constant infusion can shorten the time needed to impose the steady state for TPP^+. In this case both the plasma and myocardial concentrations become constant after about 90 minutes. The two color pictures are from studies in the same pig but measured on different days, one using constant infusion and the other the kinetic protocol. Note the excellent agreement between the two methods.

[6] = Dynamic PET/CT with Logan plot, parametric map of 18F-TPP+ volume of distribution Vd; format: in vivo, domestic swine; conditions: pig with experimental tissue injury in LAD territory, FIG. 8
Description: The study cohort consisted of n=9 domestic swine which were divided into two groups, control (n=6) and tissue injury (scar) (n=3). […] Pigs were housed and maintained under the supervision of the Massachusetts General Hospital Animal Care and Use Committee. Studies were conducted serially, one pig at a time, from August 2014 till October 2015. The weight of the pigs at scan averaged 53.1 kg with a range from 30-92 kg.
as §1, with “An arterio-venous shunt was placed in the left femoral artery for blood withdrawal.” left out
PET Scans were performed on a Siemens Biograph PET/CT scanner: A planar x-ray topogram was performed to define the field of view (FOY) with the heart centered for computed tomography (CT), CT-angiogram (CTA) and PET acquisitions. […] Each frame was reconstructed using a filtered back projection algorithm to yield a radioactivity concentration map in units of Bq/cc with 83 slices and a voxel size of 2.14×2.14×3 mm^3.
Dynamic PET data were analyzed using a Logan plot (Logan, Fowler et al. 1990) to produce parametric images of the ^18F-TPP^+ volume of distribution, Vd and reoriented into the short axis projection. […]

Compound: C[P+](c1ccccc1)(c1ccccc1)c1ccccc1 [TPMP, triphenylmethylphosphonium^+]
- reaching a steady state within an hour [1]: none of MitoQ, DecylTPP, FluroUndecylTPP and TPMP reach a steady state

Compound: COC1=C(OC)C(=O)C(CCCCCCCCCC[P+](c2ccccc2)(c2ccccc2)c2ccccc2)=C(C)C1=O [MitoQ]
- reaching a steady state within an hour [1]: none of MitoQ, DecylTPP, FluroUndecylTPP and TPMP reach a steady state

Compound: CCCCCCCCCC[P+](c1ccccc1)(c1ccccc1)c1ccccc1 [DecylTPP]
- reaching a steady state within an hour [1]: none of MitoQ, DecylTPP, FluroUndecylTPP and TPMP reach a steady state

Compound: CC(C)(C)n1ncc(OCc2ccc(COCCF)cc2)c(Cl)c1=O [^18F-Flurppiridaz]
- first pass capillary extraction E [2]: > 0.9

Compound: [18F]c1ccc([P+](c2ccccc2)(c2ccccc2)c2ccccc2)cc1 [^18F-TPP^+, ^18F-tetraphenylphosphonium]
- concentration ratio for whole blood versus plasma ([3]; constant value after injection): 0.95
- time after injection at which whole blood versus plasma ratio became constant ([3]; in vivo): about 10 minutes
- time the whole blood versus plasma ratio remained constant (duration of measurement) ([3]; in vivo): 120 min
- agreement of venous and arterial samples ([3]; samples obtained at least 10 minutes after injection): good agreement
- accumulation in the myocardium [4]: accumulates slowly in the myocardium
- extraction compared with 18F-Flurppiridaz ([4]; myocardium): much lower
- kinetics compared with 18F-Flurppiridaz ([4]; myocardium): much slower kinetics
- time remaining in the steady state ([5]; in a subject): at least 2 hours
- time to reach a steady state in subject / tissue ([5]; in vivo tissue, FIG. 4 and FIG. 11): within minutes; also recorded: within two hours
- time after which plasma and myocardial concentrations become constant ([5]; intravenous pulse of TPP+ followed by constant infusion, FIG. 11): about 90 minutes
- volume of distribution Vd ([6]; areas in other vascular territories): 25 mL/cc
- volume of distribution Vd ([6]; core of the injury): 2 mL/cc
